From patent US10918645B2 (LIFEARC, priority 2016, dated 2021)

Key:
Assay type in all cases: biochemical
Settings in all cases: 1 μM inhibitor concentration
JNK2 = JNK2 (Homo sapiens (Human), UniProt P45984); experiment: JNK2 kinase selectivity assay
Experimental: JNK2 1(5-20 mU diluted in 50 mM Tris (pH 7.5), 0.1 mM EGTA, 1 mg/ml BSA, 0.1% b-mercaptoethanol) is assayed against ATF2 (activating transcription factor in a final volume of 25.5 μl in 50 mM Tris pH 7.5, 0.1 mM EGTA, 0.1% b-Mercaptoethanol, ATF2 (3 μM), 10 mM magnesium acetate and 0.02 mM [33P-g-ATP] (500-1000 cpm/pmole) and incubated for 30 min at room temperature. Assays are stopped by addition of 5 μl of 0.5 M (3%) orthophosphoric acid and then harvested onto P81 Unifilter plates with a wash buffer of 50 mM orthophosphoric acid.

EF2K = EF2K (Homo sapiens (Human), UniProt O00418); experiment: EF2K kinase selectivity assay
Experimental: EF2K (5-20 mU diluted in 50 mM Hepes pH 6.6, 0.1% b-mercaptoethanol, 1 mg/ml BSA) is assayed against a substrate peptide ([…]) in a final volume of 25.5 μl containing 50 mM Hepes pH 6.6, 0.2 mM CaCl2, 0.3 μM Calmodulin, 0.05% b-mercaptoethanol, 300 μM substrate peptide, 10 mM magnesium acetate and 0.005 mM [33P-g-ATP] (50-1000 cpm/pmole) and incubated for 30 min at room temperature. Assays are stopped by addition of 5 μl of 0.5 M (3%) orthophosphoric acid and then harvested onto P81 Unifilter plates with a wash buffer of 50 mM orthophosphoric acid.

PHK = PHK kinase selectivity assay
Experimental: […] (5-20 mU diluted in 50 mM Na-b-glycerophosphate pH 7.0, 0.1% b-mercaptoethanol) is assayed against phosphorylase b peptide ([…]) in a final volume of 25.5 μl containing 50 mM Tris pH 8.6, 50 mM Na-b-glycerophosphate, 0.04 mM CaCl2, phosphorylase b peptide (0.196 mM), 10 mM magnesium acetate, 0.02 mM [33P-g-ATP] (500-1000 cpm/pmole) then incubated for 15 min at room temperature. Assays are stopped by addition of 5 μl of 0.5 M (3%) orthophosphoric acid and then harvested onto P81 Unifilter plates with a wash buffer of 50 mM orthophosphoric acid.

MARK3 = MARK3 (Homo sapiens (Human), UniProt P27448); experiment: MARK3 kinase selectivity assay
Experimental: MARK3 (5-20 mU diluted in 50 mM Tris pH 7.5, 0.1 mM EGTA, 0.1% b-mercaptoethanol, 1 mg/ml BSA) is assayed against CHKtide substrate ([…]) in a final volume of 25.5 μl containing 50 mM Tris pH 7.5, 0.05% b-mercaptoethanol, 300 μM substrate peptide, 10 mM magnesium acetate and 0.005 mM [33P-g-ATP](50-1000 cpm/pmole) and incubated for 30 min at room temperature. Assays are stopped by addition of 5 μl of 0.5 M (3%) orthophosphoric acid and then harvested onto P81 Unifilter plates with a wash buffer of 50 mM orthophosphoric acid.

VEG-FR = VEG-FR kinase selectivity assay
Experimental: VEG-FR (5-20 mU diluted in 50 mM Tris pH 7.5, 0.1 mM EGTA, 1 mg/ml BSA) is assayed against a substrate peptide ([…]) in a final volume of 25.5 μl containing 50 mM Tris pH 7.5, 300 µM substrate peptide, 10 mM magnesium acetate and 0.02 mM [33P-g-ATP] (50-1000 cpm/pmole) and incubated for 30 min at room temperature. Assays are stopped by addition of 5 μl of 0.5 M (3%) orthophosphoric acid and then harvested onto P81 Unifilter plates with a wash buffer of 50 mM orthophosphoric acid.

ULK2 = ULK2 (Homo sapiens (Human), UniProt Q8IYT8); experiment: ULK2 kinase selectivity assay
MST4 = MST4 (Homo sapiens (Human), UniProt Q9P289); experiment: MST4 kinase selectivity assay
Experimental: 5-20 mU of MST4 (diluted in 50 mM Tris (pH 7.5), 0.1 mM EGTA) is assayed against MBP in a final volume of […] containing 50 mM Tris (pH 7.5), 0.1 mM EGTA, 0.33 mg/ml MBP, 10 mM magnesium acetate and 0.02 mM [33P-g-ATP](500-1000 cpm/pmole) and incubated for 30 mins at room temperature. Assays are stopped by addition of […] of 0.5M (3%) orthophosphoric acid. Assays are harvested onto P81 Unifilter plates using a wash buffer of 50 mM orthophosphoric acid.

CK2 = CK2 kinase selectivity assay
Experimental: CK2 (5-20 mU diluted in 20 mM Hepes pH7.5, 0.15 M NaCl, 0.1 mM EGTA, 0.1% Triton X-100, 5 mM DTT, 50% glycerol) is assayed against CKII peptide ([…]) in a final volume of 25.5 μl containing 20 mM Hepes pH 7.5, 0.15 M NaCl, 0.1 mM EDTA, 5 mM DTT, 0.1% Triton-X 100, CKII peptide (0.165 mM), 10 mM magnesium acetate and 0.005 mM [33P-g-ATP](500-1000 cpm/pmole) and incubated for 30 min at room temperature. Assays are stopped by addition of 5 μl of 0.5 M (3%) orthophosphoric acid and then harvested onto P81 Unifilter plates with a wash buffer of 50 mM orthophosphoric acid.

HER4 = HER4 (Homo sapiens (Human), UniProt Q15303); experiment: HER4 kinase selectivity assay
Experimental: HER4 (5-20 mU diluted in 50 mM Tris pH 7.5, 0.1 mM EGTA, 0.1% β-mercaptoethanol, 1 mg/ml BSA) is assayed against Poly Glut Tyr in a final volume of […] containing 50 mM Tris pH 7.5, 0.1 mM EGTA, 1 mg/ml Poly Glut Tyr, 10 mM magnesium acetate and 0.005 mM [33P-γ-ATP] (50-1000 cpm/pmole) and incubated for 30 min at room temperature. Assays are stopped by addition of 5 μl of 0.5 M (3%) orthophosphoric acid and then harvested onto P81 Unifilter plates with a wash buffer of 50 mM orthophosphoric acid.

Sequence of MARK3 (P27448 whole entry, species assumed): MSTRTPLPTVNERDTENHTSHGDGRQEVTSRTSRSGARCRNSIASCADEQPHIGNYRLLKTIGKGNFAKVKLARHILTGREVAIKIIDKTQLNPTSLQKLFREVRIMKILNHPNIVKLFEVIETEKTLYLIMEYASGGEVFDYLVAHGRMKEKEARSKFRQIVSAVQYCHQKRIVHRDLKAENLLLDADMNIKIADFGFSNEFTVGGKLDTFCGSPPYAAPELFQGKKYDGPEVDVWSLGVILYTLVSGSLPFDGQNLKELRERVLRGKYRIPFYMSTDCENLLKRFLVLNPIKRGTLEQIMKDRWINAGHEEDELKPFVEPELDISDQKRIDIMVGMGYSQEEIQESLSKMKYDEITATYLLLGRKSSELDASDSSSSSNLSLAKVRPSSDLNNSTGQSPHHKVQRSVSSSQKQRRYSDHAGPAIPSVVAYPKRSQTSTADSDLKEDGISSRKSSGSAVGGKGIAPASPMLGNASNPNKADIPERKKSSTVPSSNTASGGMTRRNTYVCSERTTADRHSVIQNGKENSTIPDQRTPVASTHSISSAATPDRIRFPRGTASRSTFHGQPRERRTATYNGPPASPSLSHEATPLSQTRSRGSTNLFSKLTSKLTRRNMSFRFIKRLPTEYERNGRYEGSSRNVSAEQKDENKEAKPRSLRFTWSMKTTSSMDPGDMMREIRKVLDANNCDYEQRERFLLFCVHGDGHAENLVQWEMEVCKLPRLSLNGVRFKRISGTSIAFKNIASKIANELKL
Sequence of ULK2 (Q8IYT8 whole entry, species assumed): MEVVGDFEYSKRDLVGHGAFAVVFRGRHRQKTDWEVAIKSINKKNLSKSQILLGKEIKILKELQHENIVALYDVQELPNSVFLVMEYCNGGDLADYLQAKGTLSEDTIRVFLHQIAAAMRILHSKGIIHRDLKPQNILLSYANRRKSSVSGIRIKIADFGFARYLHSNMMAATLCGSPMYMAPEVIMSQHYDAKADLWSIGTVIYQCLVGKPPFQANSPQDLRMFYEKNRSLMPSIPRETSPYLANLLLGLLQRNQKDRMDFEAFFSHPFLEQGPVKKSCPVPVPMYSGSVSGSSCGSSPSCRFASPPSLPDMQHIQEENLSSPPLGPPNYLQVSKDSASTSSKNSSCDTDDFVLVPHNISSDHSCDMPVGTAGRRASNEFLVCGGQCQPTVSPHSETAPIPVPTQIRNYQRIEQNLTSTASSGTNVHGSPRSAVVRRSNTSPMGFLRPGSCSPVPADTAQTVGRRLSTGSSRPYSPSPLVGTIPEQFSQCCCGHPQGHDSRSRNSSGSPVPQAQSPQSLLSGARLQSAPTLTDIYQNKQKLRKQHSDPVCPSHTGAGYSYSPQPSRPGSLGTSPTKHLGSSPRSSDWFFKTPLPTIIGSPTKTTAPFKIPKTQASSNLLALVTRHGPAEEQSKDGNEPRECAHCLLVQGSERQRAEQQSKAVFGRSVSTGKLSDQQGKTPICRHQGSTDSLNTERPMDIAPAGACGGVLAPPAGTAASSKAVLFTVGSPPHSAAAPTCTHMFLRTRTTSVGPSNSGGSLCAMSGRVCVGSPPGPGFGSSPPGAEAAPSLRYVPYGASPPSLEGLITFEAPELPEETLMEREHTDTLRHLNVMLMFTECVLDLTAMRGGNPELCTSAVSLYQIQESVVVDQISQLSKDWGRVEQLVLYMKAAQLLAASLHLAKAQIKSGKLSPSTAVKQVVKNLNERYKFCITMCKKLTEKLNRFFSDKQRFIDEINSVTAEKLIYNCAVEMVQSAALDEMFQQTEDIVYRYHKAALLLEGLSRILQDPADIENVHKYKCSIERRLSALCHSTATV
Sequence of MST4 (Q9P289 whole entry, species assumed): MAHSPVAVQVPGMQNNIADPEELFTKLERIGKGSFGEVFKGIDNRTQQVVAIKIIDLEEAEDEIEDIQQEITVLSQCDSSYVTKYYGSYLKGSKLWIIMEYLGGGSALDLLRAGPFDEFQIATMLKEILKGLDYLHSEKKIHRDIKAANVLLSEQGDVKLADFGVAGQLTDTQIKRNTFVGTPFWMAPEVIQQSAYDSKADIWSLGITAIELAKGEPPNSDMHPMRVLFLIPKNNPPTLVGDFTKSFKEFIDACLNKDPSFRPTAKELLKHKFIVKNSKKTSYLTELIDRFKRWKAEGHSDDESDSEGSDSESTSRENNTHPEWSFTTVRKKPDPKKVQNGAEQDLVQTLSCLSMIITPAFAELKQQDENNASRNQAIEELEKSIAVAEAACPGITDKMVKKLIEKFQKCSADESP
Sequence of HER4 (Q15303 26-1308, species assumed): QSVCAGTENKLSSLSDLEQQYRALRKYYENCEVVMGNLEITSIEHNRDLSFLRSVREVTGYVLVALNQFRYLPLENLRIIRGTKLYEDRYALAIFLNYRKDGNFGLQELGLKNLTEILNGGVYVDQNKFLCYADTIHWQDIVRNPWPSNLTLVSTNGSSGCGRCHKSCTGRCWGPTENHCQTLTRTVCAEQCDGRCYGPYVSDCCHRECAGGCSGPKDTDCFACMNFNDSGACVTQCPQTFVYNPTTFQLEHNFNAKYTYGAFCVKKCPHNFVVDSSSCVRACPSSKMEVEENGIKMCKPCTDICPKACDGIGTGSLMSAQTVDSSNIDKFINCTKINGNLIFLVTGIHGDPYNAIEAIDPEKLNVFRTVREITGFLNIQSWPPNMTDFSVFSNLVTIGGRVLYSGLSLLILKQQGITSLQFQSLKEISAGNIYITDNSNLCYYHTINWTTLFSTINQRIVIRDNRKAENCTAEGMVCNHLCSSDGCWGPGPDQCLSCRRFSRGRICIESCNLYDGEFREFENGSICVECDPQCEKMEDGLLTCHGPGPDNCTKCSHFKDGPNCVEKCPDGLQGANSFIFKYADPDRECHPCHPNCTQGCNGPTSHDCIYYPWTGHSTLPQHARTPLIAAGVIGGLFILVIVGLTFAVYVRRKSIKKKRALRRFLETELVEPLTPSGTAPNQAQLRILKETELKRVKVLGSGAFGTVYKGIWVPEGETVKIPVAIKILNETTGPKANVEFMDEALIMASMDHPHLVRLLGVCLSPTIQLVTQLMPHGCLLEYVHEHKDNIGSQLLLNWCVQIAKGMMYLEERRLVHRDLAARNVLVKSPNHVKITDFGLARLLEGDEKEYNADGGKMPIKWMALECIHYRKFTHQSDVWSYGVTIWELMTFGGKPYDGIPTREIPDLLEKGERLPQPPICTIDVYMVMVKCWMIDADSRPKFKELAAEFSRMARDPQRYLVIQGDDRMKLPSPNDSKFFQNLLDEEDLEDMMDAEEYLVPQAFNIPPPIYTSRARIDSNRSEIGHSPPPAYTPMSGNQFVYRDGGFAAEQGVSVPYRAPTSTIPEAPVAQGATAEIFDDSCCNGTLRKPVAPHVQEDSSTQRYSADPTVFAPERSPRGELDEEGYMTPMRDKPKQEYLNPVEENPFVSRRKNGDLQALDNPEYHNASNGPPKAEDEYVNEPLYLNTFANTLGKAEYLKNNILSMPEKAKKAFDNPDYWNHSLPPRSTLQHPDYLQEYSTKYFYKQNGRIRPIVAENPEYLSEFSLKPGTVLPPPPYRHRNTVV
Sequence of JNK2 (P45984 whole entry, species assumed): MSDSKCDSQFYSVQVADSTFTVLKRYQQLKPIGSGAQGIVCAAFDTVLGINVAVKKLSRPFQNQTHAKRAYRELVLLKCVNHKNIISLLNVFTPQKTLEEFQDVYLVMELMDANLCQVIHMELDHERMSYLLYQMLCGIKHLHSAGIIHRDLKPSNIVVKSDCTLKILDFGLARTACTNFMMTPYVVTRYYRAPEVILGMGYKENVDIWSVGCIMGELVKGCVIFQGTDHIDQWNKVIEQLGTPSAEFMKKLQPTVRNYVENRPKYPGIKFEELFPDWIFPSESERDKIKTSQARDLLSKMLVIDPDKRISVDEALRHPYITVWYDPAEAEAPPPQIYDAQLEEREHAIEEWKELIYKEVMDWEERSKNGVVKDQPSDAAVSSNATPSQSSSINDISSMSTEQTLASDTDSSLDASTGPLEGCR

c1cc2[nH]nc3c2c(n1)N(C1CCOCC1)CCC3 [Example 29, 6-(tetrahydro-2H-pyran-4-yl)-6,7,8,9-tetrahydro-2H-1,2,5,6-tetraazabenzo[cd]azulene] was tested, and the “percentage inhibition of JNK2” value (JNK2) was 0 percentage, the “percentage inhibition of EF2K” value (EF2K) was 0 percentage and the “percentage inhibition of PHK” value (PHK) was 35 percentage. For the same molecule, the “percentage inhibition of MARK3” value (MARK3) was 13 percentage, the “percentage inhibition of VEG-FR” value (VEG-FR) was 9 percentage and the “percentage inhibition of ULK2” value (ULK2) was 7 percentage. The “percentage inhibition of MST4” value (MST4) was 1 percentage, the “percentage inhibition of CK2” value (CK2) was 0 percentage and the “percentage inhibition of HER4” value (HER4) was 10 percentage.

With CN1CCC(N2Cc3ccccc3-c3n[nH]c4ccnc2c34)CC1 [Example 55] the “percentage inhibition of JNK2” value (JNK2) was 41 percentage, the “percentage inhibition of EF2K” value (EF2K) was 1 percentage and the “percentage inhibition of PHK” value (PHK) was 73 percentage. The “percentage inhibition of MARK3” value (MARK3) was 47 percentage, the “percentage inhibition of VEG-FR” value (VEG-FR) was 19 percentage and the “percentage inhibition of ULK2” value (ULK2) was 31 percentage. For the same molecule, the “percentage inhibition of MST4” value (MST4) was 0 percentage, the “percentage inhibition of CK2” value (CK2) was 11 percentage and the “percentage inhibition of HER4” value (HER4) was 0 percentage.

c1cc2[nH]nc3c2c(n1)N(C1CCCC1)CCC3 [Example 23, 6-cyclopentyl-6,7,8,9-tetrahydro-2H-1,2,5,6-tetraazabenzo[cd]azulene] was tested, and the “percentage inhibition of JNK2” value (JNK2) was 0 percentage, the “percentage inhibition of EF2K” value (EF2K) was 0 percentage and the “percentage inhibition of MARK3” value (MARK3) was 0 percentage. The “percentage inhibition of ULK2” value (ULK2) was 1 percentage, the “percentage inhibition of MST4” value (MST4) was 0 percentage and the “percentage inhibition of HER4” value (HER4) was 3 percentage.

For CC(C)n1ncc2c1CN(C1CCN(C)CC1)c1nccc3[nH]nc-2c13 [Example 68], the “percentage inhibition of JNK2” value (JNK2) was 37 percentage, the “percentage inhibition of EF2K” value (EF2K) was 1 percentage and the “percentage inhibition of PHK” value (PHK) was 43 percentage. The “percentage inhibition of MARK3” value (MARK3) was 43 percentage, the “percentage inhibition of VEG-FR” value (VEG-FR) was 42 percentage and the “percentage inhibition of ULK2” value (ULK2) was 10 percentage. For the same molecule, the “percentage inhibition of MST4” value (MST4) was 0 percentage, the “percentage inhibition of CK2” value (CK2) was 4 percentage and the “percentage inhibition of HER4” value (HER4) was 1 percentage.

With c1cc2[nH]nc3c2c(n1)N(C1CCC1)CCC3 [Example 22, 6-cyclobutyl-6,7,8,9-tetrahydro-2H-1,2,5,6-tetraazabenzo[cd]azulene] the “percentage inhibition of JNK2” value (JNK2) was 1 percentage, the “percentage inhibition of EF2K” value (EF2K) was 0 percentage and the “percentage inhibition of PHK” value (PHK) was 41 percentage. The “percentage inhibition of MARK3” value (MARK3) was 1 percentage, the “percentage inhibition of VEG-FR” value (VEG-FR) was 0 percentage and the “percentage inhibition of ULK2” value (ULK2) was 12 percentage. For the same molecule, the “percentage inhibition of MST4” value (MST4) was 6 percentage, the “percentage inhibition of CK2” value (CK2) was 0 percentage and the “percentage inhibition of HER4” value (HER4) was 8 percentage.
